Assay results: PubChem BioAssay (NCI)
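These data come from cells grown in 96-well plates and exposed to compound for 48 hours at five concentrations. GI50 = concentration required for 50% inhibition of growth. TGI is the concentration that stops growth completely.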

Columns and labels:
Assay in all cases: DTP human tumour cell line panel, 48 h
[1] = system: 786-0 renal
[2] = system: A498 renal
[3] = system: A549 NSCLC
[4] = system: ACHN renal
[5] = system: BT-549 breast
[6] = system: CAKI-1 renal
[7] = system: CCRF-CEM leukemia
[8] = system: COLO 205 colon
[9] = system: DU-145 prostate
[10] = system: EKVX NSCLC
[11] = system: HCC-2998 colon
[12] = system: HCT-116 colon
[13] = system: HCT-15 colon
[14] = system: HL-60(TB) leukemia
[15] = system: HOP-62 NSCLC
[16] = system: HOP-92 NSCLC
[17] = system: HS 578T breast
[18] = system: HT29 colon
[19] = system: IGROV1 ovarian
[20] = system: K-562 leukemia
[21] = system: KM12 colon
[22] = system: LOX IMVI melanoma
[23] = system: M14 melanoma
[24] = system: MALME-3M melanoma
[25] = system: MCF7 breast
[26] = system: MDA-MB-231 breast
[27] = system: MDA-MB-435
[28] = system: MDA-MB-468 breast
[29] = system: MOLT-4 leukemia
[30] = system: NCI-H226 lung
[31] = system: NCI-H23 lung
[32] = system: NCI-H460 lung
[33] = system: NCI-H522 lung
[34] = system: NCI/ADR-RES ovarian
[35] = system: OVCAR-3 ovarian
[36] = system: OVCAR-4 ovarian
[37] = system: OVCAR-5 ovarian
[38] = system: OVCAR-8 ovarian
[39] = system: PC-3 prostate
[40] = system: RPMI-8226 leukemia
[41] = system: RXF 393 renal
[42] = system: SF-268 CNS
[43] = system: SF-295 CNS
[44] = system: SF-539 CNS
[45] = system: SK-MEL-2 melanoma
[46] = system: SK-MEL-28 melanoma
[47] = system: SK-MEL-5 melanoma
[48] = system: SK-OV-3 ovarian
[49] = system: SN12C renal
[50] = system: SNB-19 CNS
[51] = system: SNB-75 CNS
[52] = system: SW-620 colon
[53] = system: T-47D breast
[54] = system: TK-10 renal
[55] = system: U251 CNS
[56] = system: UACC-257 melanoma
[57] = system: UACC-62 melanoma
[58] = system: UO-31 renal

Cc1cccc(-c2nc(Nc3ccc(C)c(S(N)(=O)=O)c3)c3ccccc3n2)c1
GI50 [1]: 5.68 µM | TGI [1]: 17.8 µM | GI50 [2]: 8.25 µM | TGI [2]: 25.8 µM | GI50 [3]: 6.51 µM | TGI [3]: 32.8 µM | GI50 [4]: 4.8 µM | TGI [4]: 21 µM | GI50 [5]: 15.8 µM | TGI [5]: 63.5 µM | GI50 [6]: 5.78 µM | TGI [6]: 21.8 µM | GI50 [7]: 4.11 µM | TGI [7]: 25.8 µM | GI50 [8]: 7.07 µM | TGI [8]: 19.8 µM | GI50 [9]: 13.1 µM | TGI [9]: 69.2 µM | GI50 [10]: 6.18 µM | TGI [10]: 24.1 µM | GI50 [11]: 3.1 µM | TGI [11]: 10.8 µM | GI50 [12]: 5.84 µM | TGI [12]: 19.6 µM | GI50 [13]: 3.07 µM | TGI [13]: 10.8 µM | GI50 [14]: 4.67 µM | TGI [14]: 61.5 µM | GI50 [15]: 11 µM | TGI [15]: 26.6 µM | GI50 [16]: 6.46 µM | TGI [16]: 27.2 µM | GI50 [17]: 10.4 µM | TGI [17]: 61.1 µM | GI50 [18]: 4.67 µM | TGI [18]: 18.8 µM | GI50 [19]: 10.3 µM | TGI [19]: 32.7 µM | GI50 [20]: 3.47 µM | TGI [20]: 19 µM | GI50 [21]: 3.32 µM | TGI [21]: > 100 µM | GI50 [22]: 3.31 µM | TGI [22]: 12.5 µM | GI50 [23]: 9.55 µM | TGI [23]: 21.3 µM | GI50 [24]: 13.9 µM | TGI [24]: 32.1 µM | GI50 [25]: 3.16 µM | TGI [25]: 12.9 µM | GI50 [26]: 4.04 µM | TGI [26]: 17.5 µM | GI50 [27]: 10.5 µM | TGI [27]: 67.3 µM | GI50 [28]: 4.07 µM | TGI [28]: 16.5 µM | GI50 [29]: 3.73 µM | TGI [29]: 33.8 µM | GI50 [30]: 11.6 µM | TGI [30]: 35.1 µM | GI50 [31]: 13.3 µM | TGI [31]: 33.5 µM | GI50 [32]: 3.94 µM | TGI [32]: 25 µM | GI50 [33]: 2.72 µM | TGI [33]: 7.93 µM | GI50 [34]: 5.6 µM | TGI [34]: 35.9 µM | GI50 [35]: 9.36 µM | TGI [35]: > 100 µM | GI50 [36]: 8.5 µM | TGI [36]: > 100 µM | GI50 [37]: 12.4 µM | TGI [37]: 27.4 µM | GI50 [38]: 9.17 µM | TGI [38]: 43.4 µM | GI50 [39]: 4.09 µM | TGI [39]: 55.4 µM | GI50 [40]: 4.38 µM | TGI [40]: 35 µM | GI50 [41]: 3.3 µM | TGI [41]: 11 µM | GI50 [42]: 11.8 µM | TGI [42]: > 100 µM | GI50 [43]: 2.61 µM | TGI [43]: 8.28 µM | GI50 [44]: 7.78 µM | TGI [44]: 27 µM | GI50 [45]: 11.4 µM | TGI [45]: 32.1 µM | GI50 [46]: 11.4 µM | TGI [46]: 28.8 µM | GI50 [47]: 11 µM | TGI [47]: 24.7 µM | GI50 [48]: 17.6 µM | TGI [48]: 47.8 µM | GI50 [49]: 11.5 µM | TGI [49]: 28.2 µM | GI50 [50]: 10.5 µM | TGI [50]: 53 µM | GI50 [51]: 13.1 µM | TGI [51]: 52 µM | GI50 [52]: 6.44 µM | TGI [52]: 24 µM | GI50 [53]: 3.61 µM | TGI [53]: 16.7 µM | GI50 [54]: 15.3 µM | TGI [54]: 41.9 µM | GI50 [55]: 8.08 µM | TGI [55]: 34.2 µM | GI50 [56]: 18.3 µM | TGI [56]: 51.4 µM | GI50 [57]: 13.6 µM | TGI [57]: 30.2 µM | GI50 [58]: 5.57 µM | TGI [58]: 27.1 µM
